Values after ≈ are worked out from the molar mass of the structure shown.
Columns and labels:
[1] = tested on: Enterococcus faecalis 2041; experiment: Broth micro-dilution MIC; assay type: cell-based; conditions: BHI medium
Protocol: (§1) The compounds of the present invention have in vitro activity against Gram-positive pathogenic bacteria. The antibacterial activity of the present compounds is illustrated in Tables III and IV. The minimal inhibitory concentrations (MICs) were determined using a standard broth micro-dilution assay. Table IV presents a comparison of the activity of illustrative compounds against representative vancomycin-resistant and vancomycin-sensitive enterococci (Enterococcus faecium and Enterococcus faecalis), mean geometric MIC (mcg/mL), as determined by the standard broth microdilution assay.
(§2) Assays for antimicrobial activity were performed using microbroth susceptibility testing methods as described by the NCCLS (National Committee for Clinical Laboratories Standards. 1990. Approved standard M7-A2. Methods for dilution antimicrobial susceptibility testing for bacteria that grow aerobically, 2 ed., Villanova Pa.). Brain-heart infusion medium (BHI) was used for testing of enterococci, and NCCLS recommendations for medium were followed for other bacteria.

[2] = tested on: Enterococcus faecalis 276; experiment: Broth micro-dilution MIC; assay type: cell-based; conditions: BHI medium
Protocol: as §1, §2

[3] = tested on: Enterococcus faecium 180-1; experiment: Broth micro-dilution MIC; assay type: cell-based; conditions: BHI medium
Protocol: as §1, §2

Enterococcus faecium 180 = experiment: Broth micro-dilution MIC; assay type: cell-based; conditions: BHI medium
Protocol: as §1, §2

[4] = tested on: Enterococcus gallinarum 245; experiment: Broth micro-dilution MIC; assay type: cell-based; conditions: BHI medium
Protocol: as §1, §2

Escherichia coli EC14 = experiment: Broth micro-dilution MIC; assay type: cell-based
Protocol: as §1, §2

[5] = tested on: Staphylococcus aureus 446; experiment: Broth micro-dilution MIC; assay type: cell-based
Protocol: as §1, §2

[6] = tested on: Staphylococcus aureus 447; experiment: Broth micro-dilution MIC; assay type: cell-based
Protocol: as §1, §2

[7] = tested on: Staphylococcus aureus 489; experiment: Broth micro-dilution MIC; assay type: cell-based
Protocol: as §1, §2

[8] = tested on: Staphylococcus aureus 491; experiment: Broth micro-dilution MIC; assay type: cell-based
Protocol: as §1, §2

[9] = tested on: Staphylococcus aureus S13E; experiment: Broth micro-dilution MIC; assay type: cell-based
Protocol: as §1, §2

[10] = tested on: Staphylococcus aureus SA1199A; experiment: Broth micro-dilution MIC; assay type: cell-based
Protocol: as §1, §2

[11] = tested on: Staphylococcus aureus SA1199B; experiment: Broth micro-dilution MIC; assay type: cell-based
Protocol: as §1, §2

[12] = tested on: Staphylococcus aureus SA1199; experiment: Broth micro-dilution MIC; assay type: cell-based
Protocol: as §1, §2

[13] = tested on: Staphylococcus aureus X400; experiment: Broth micro-dilution MIC; assay type: cell-based
Protocol: as §1, §2

[14] = tested on: Staphylococcus aureus X778; experiment: Broth micro-dilution MIC; assay type: cell-based
Protocol: as §1, §2

[15] = tested on: Staphylococcus epidermidis 270; experiment: Broth micro-dilution MIC; assay type: cell-based
Protocol: as §1, §2

[16] = tested on: Staphylococcus haemolyticus 105; experiment: Broth micro-dilution MIC; assay type: cell-based
Protocol: as §1, §2

[17] = tested on: Staphylococcus haemolyticus 415; experiment: Broth micro-dilution MIC; assay type: cell-based
Protocol: as §1, §2

[18] = tested on: Streptococcus pneumoniae P1; experiment: Broth micro-dilution MIC; assay type: cell-based
Protocol: as §1, §2

[19] = tested on: Streptococcus pyogenes C203; experiment: Broth micro-dilution MIC; assay type: cell-based
Protocol: as §1, §2

[20] = tested on: vancomycin-resistant enterococci; experiment: In vitro activity against enterococci, broth microdilution; assay type: cell-based, Enterococcus faecium and Enterococcus faecalis; conditions: representative vancomycin-resistant enterococci (E. faecium and E. faecalis); BHI medium
Protocol: as §1, §2

[21] = tested on: vancomycin-sensitive enterococci; experiment: as above; assay type: cell-based, Enterococcus faecium and Enterococcus faecalis; conditions: representative vancomycin-sensitive enterococci (E. faecium and E. faecalis); BHI medium
Protocol: as §1, §2

SMILES | MIC [1] | MIC [2] | MIC [3] | MIC (Enterococcus faecium 180) [µg/mL] | MIC [4] [µg/mL] | MIC (Escherichia coli EC14) [µg/mL] | MIC [5] [µg/mL] | MIC [6] [µg/mL] | MIC [7] | MIC [8] | MIC [9] | MIC [10] | MIC [11] [µg/mL] | MIC [12] [µg/mL] | MIC [13] [µg/mL] | MIC [14] | MIC [15] [µg/mL] | MIC [16] | MIC [17] [µg/mL] | MIC [18] | further results
CNC(CC(C)C)C(=O)NC1C(=O)NC(CC(N)=O)C(=O)NC2C(=O)NC3C(=O)NC(C(=O)NC(C(=O)O)c4cc(O)cc(O)c4-c4cc3ccc4O)C(OC3CC(C)(N)C(O)C(C)O3)c3ccc(c(Cl)c3)Oc3cc2cc(c3OC2OC(CO)C(O)C(O)C2OC2CC(C)(NC(=O)CCCCCCCc3ccccc3)C(O)C(C)O2)Oc2ccc(cc2Cl)C1O (stereo not drawn) [Example 11] | ≦.06 μg/ml | 0.25 µg/mL (≈ 0.139 µM) | ≦.06 μg/ml | 0.5 (≈ 0.279 µM) | 4 (≈ 2.23 µM) | >64 | 1 (≈ 0.557 µM) | 2 (≈ 1.11 µM) | 0.25 µg/mL (≈ 0.139 µM) | 0.125 µg/mL (≈ 0.0696 µM) | 0.25 µg/mL (≈ 0.139 µM) | ≦.06 μg/ml | 0.25 (≈ 0.139 µM) | 1 (≈ 0.557 µM) | 0.5 (≈ 0.279 µM) | 0.125 µg/mL (≈ 0.0696 µM) | 1 (≈ 0.557 µM) | ≦.06 μg/ml | 4 (≈ 2.23 µM) | ≦.06 μg/ml | MIC [19]: ≦.06 μg/ml; Mean geometric MIC, Vancomycin Resistant Strains [20]: 9.5 µg/mL; Mean geometric MIC, Vancomycin Sensitive Strains [21]: 0.093 µg/mL
CNC(CC(C)C)C(=O)NC1C(=O)NC(CC(N)=O)C(=O)NC2C(=O)NC3C(=O)NC(C(=O)NC(C(=O)O)c4cc(O)cc(O)c4-c4cc3ccc4O)C(OC3CC(C)(NC(=O)CCCCCCCc4ccccc4)C(O)C(C)O3)c3ccc(c(Cl)c3)Oc3cc2cc(c3OC2OC(CO)C(O)C(O)C2OC2CC(C)(N)C(O)C(C)O2)Oc2ccc(cc2Cl)C1O (stereo not drawn) [Example 12] | ≦.06 μg/ml | ≦.06 μg/ml | ≦.06 μg/ml | 2 (≈ 1.11 µM) | 8 (≈ 4.46 µM) | >64 | 0.125 (≈ 0.0696 µM) | 2 (≈ 1.11 µM) | ≦.06 μg/ml | ≦.06 μg/ml | ≦.06 μg/ml | ≦.06 μg/ml | 0.125 (≈ 0.0696 µM) | 0.25 (≈ 0.139 µM) | 0.125 (≈ 0.0696 µM) | ≦.06 μg/ml | 2 (≈ 1.11 µM) | ≦.06 μg/ml | 8 (≈ 4.46 µM) | ≦.06 μg/ml | MIC [19]: ≦.06 μg/ml; Mean geometric MIC, Vancomycin Resistant Strains [20]: 45 µg/mL; Mean geometric MIC, Vancomycin Sensitive Strains [21]: 0.33 µg/mL
CC(C)CC(C(=O)NC1C(=O)NC(CC(N)=O)C(=O)NC2C(=O)NC3C(=O)NC(C(=O)NC(C(=O)O)c4cc(O)cc(O)c4-c4cc3ccc4O)C(OC3CC(C)(N)C(O)C(C)O3)c3ccc(c(Cl)c3)Oc3cc2cc(c3OC2OC(CO)C(O)C(O)C2OC2CC(C)(N)C(O)C(C)O2)Oc2ccc(cc2Cl)C1O)N(C)C(=O)CCCCCCCc1ccccc1 (stereo not drawn) [Example 13] | 0.25 µg/mL (≈ 0.139 µM) | 0.25 µg/mL (≈ 0.139 µM) | ≦.06 μg/ml | 8 (≈ 4.46 µM) | 2 (≈ 1.11 µM) | >64 | 0.5 (≈ 0.279 µM) | 0.5 (≈ 0.279 µM) | 0.125 µg/mL (≈ 0.0696 µM) | 0.125 µg/mL (≈ 0.0696 µM) | 0.5 µg/mL (≈ 0.279 µM) | ≦.06 μg/ml | 0.25 (≈ 0.139 µM) | 0.5 (≈ 0.279 µM) | 0.25 (≈ 0.139 µM) | 0.25 µg/mL (≈ 0.139 µM) | 0.25 (≈ 0.139 µM) | ≦.06 μg/ml | 8 (≈ 4.46 µM) | ≦.06 μg/ml | MIC [19]: ≦.06 μg/ml; Mean geometric MIC, Vancomycin Resistant Strains [20]: >51 µg/mL; Mean geometric MIC, Vancomycin Sensitive Strains [21]: 1.5 µg/mL

— US7365053B2, “Selective N-acylation of A82846 glygopeptides analogs” (priority 2000, dated 2008)
